Measured values reported in publication PMC8394532, “Structural and Functional Insights into the Biofilm-Associated BceF Tyrosine Kinase Domain from Burkholderia cepacia” (Biomolecules, 2021).

Columns and labels:
[1] = target: T1, BceF kinase domain (Burkholderia cepacia, UniProt Q0GYW2); assay: X-ray crystal structure, […] Å; assay type: binding; details: endogenous ADP co-purified from E. coli; active site; crystals pH 5.5
T1 construct: cytoplasmic kinase domain, residues 471-741; synthetic codon-optimised gene, N-terminal His6-TEV; E. coli BL21(DE3); partly phosphorylated C-terminal tyrosines

[2] = target: T1, BceF kinase domain; assay: microscale thermophoresis, NT-647 labelled protein; assay type: binding
[3] = target: the molecule itself; assay: SEC-MALS; Superdex 75 10/300 column, miniDAWN TREOS and Optilab T-rEX; SEC analysis at pH 7.5; single species of 59.1 kDa against a calculated monomer of 29.4 kDa

## Nc1ncnc2c1ncn2[C@@H]1O[C@H](COP(=O)(O)OP(=O)(O)O)[C@@H](O)[C@H]1O [ADP]
[1]
  X-ray crystal structure, 1.85 Å: The structure revealed an adenosine diphosphate (ADP) molecule bound at the active site

## Nc1ncnc2c1ncn2[C@@H]1O[C@H](COP(=O)(O)OP(=O)(O)NP(=O)(O)O)[C@@H](O)[C@H]1O [AMP-PNP]
[2]
  Kd: 1640 ± 220 µM

B1: BceF kinase domain (residues 471-741) from Burkholderia cepacia (domain or fragment)
chain: RRNMFQGIEDPDRIERAFNLPLYGLVPQSAEQVKLDAQAEKSGSRTRPILASLRPKDLSVESLRSLRTAMQFAMMDAKNRVIVLTGPTPGIGKSFLTVNLAVLLAHSGKRVLLIDADMRRGLLDRYFGLTSQPGLSELLSDQSALEDAVRETPVQGLSFISAGTRPPNPSELLMSTRLPQYLEGLGKRYDVVLIDSPPVLAVTDATIIGRMAGSTFLVLRSGMHTEGEIADAIKRLRTAGVDLEGGIFNGVPPKARGYGRGYAAVHEYLSA
modifications: partly phosphotyrosine in the C-terminal tail 725-741 (MS/MS: 28% non-phosphorylated, 68% monophosphorylated mostly at the third tyrosine, position 14 of the peptide)
notes: His6 tag and TEV site at the N-terminus; cleaved with TEV in the preparation for crystallisation; also called isolated BceF kinase domain; BceF tyrosine kinase domain; source: E. coli BL21(DE3), purified (HisTrap, TEV cleavage, second HisTrap, SEC Superdex 200); not shown: His6, N-terminal, cleaved
[3]
  stoichiometry N: 2
